This is an account of results in patent US20230099822A1, “MR1 LIGANDS AND PHARMACEUTICAL COMPOSITIONS FOR IMMUNOMODULATION” (UNIVERSITÄT BASEL, priority 2020, published 2023).

Format in all cases: cell-based, human
One test deals with MR1T cell clones. In words: MR1T cell activation assay with drug-treated THP-1 cells. The settings on record: THP-1 cells with Doxorubicin 75 nM or Paclitaxel 5 μM and nucleosides (dAdenosine and Guanosine, both 150 μM). The method, then: MR1T cells (5×10^4/well unless otherwise indicated) were co-cultured with the indicated APCs (10^5 cells per well unless otherwise indicated) for 18 h in 120 μL volume in triplicate. In some experiments, anti-MR1 mAbs (clone 26.5, purified and endotoxin-free mouse IgG2a, (Lepore et al., 2014)) or mouse IgG2a isotype control mAbs (LEAF, Biolegend, Cat #401504) (both at 30 μg/mL) were added and incubated for 30 min at 37° C. prior to the addition of T cells.
In experiments with mycophenolic acid (10 μM), EHNA (25 μM), S-p-bromobenzylglutathione cyclopentyl diester (BBG, 20 μM) (all from Sigma-Aldrich), THP-1 cells (1×10^6/mL) were treated with the indicated concentrations of drugs in complete medium at 37° C. for 18 h before being washed twice with PBS, counted and used for T-cell activation. In experiments where THP-1 cells (1×10^6/mL) were treated with doxorubicin (75 nM) and paclitaxel (5 μM) (both from Sigma-Aldrich), the cells were incubated at 37° C. for 18 h before being washed twice with PBS, counted, and incubated for 2 h with vehicle or 150 μM dAdo and 150 μM guanosine (Sigma-Aldrich) prior to T-cell addition. In experiments where fixed A375-MR1 cells were used to activate MR1T cells, APCs (4×10^5/mL) were treated with apocynin (APO, 100 μM), L-glutathione reduced (GSH, 4 mM), N-acetyl cysteine (NAC, 4 mM), L-buthionine-sulfoximine (BSO, 400 μM) mercaptosuccinic acid (MSA, 3.3 μM), ML-210 (6 μM) or 1S,3R-RSL3 (RSL3, 1 μM), hydralazine hydrochloride (100 μM) or aminoguanidine hemisulfate salt (5 mM) for 18 h at 37° C. before being washed twice with PBS, fixed with glutaraldehyde, counted and used for MR1T cell stimulation.
The following human cytokines were assessed by ELISA using specific mAbs: GM-CSF (purified clone BVD2-23B6 and biotinylated clone BVD2-21C11, Biolegend Cat #502202 and 502304, respectively), IFN-γ (purified clone MD-1 and biotinylated clone 4S.B3, Biolegend Cat #507502 and 502504, respectively), IL-13 (purified clone JES10-5A2 and biotinylated clone SB126d, SouthernBiotech Cat #10125-01 and 15930-08, respectively).

The next test concerns THP-1 cells. Nature of the test: ROS production measurement (CM-H2DCFDA). As to conditions: 75 nM Doxorubicin or 5 μM Paclitaxel, 18 h (FIG. 17A). Here is the method: CM-H2DCFDA (Thermo Fisher Scientific) was used to assess ROS production in cell upon cell treatment with Doxorubicin and Paclitaxel. THP-1 cells ([…]) were labelled with 10 μM CM-H2DCFDA for 30 min at 37° C. in the dark, then washed with PBS and resuspended in complete medium. 10^5 cells were seeded per well and treated with 75 nM Doxorubicin, 5 μM Paclitaxel or vehicle for 18 h at 37° C. Phorbol 12-myristate 13-acetate (PMA, 50 ng/mL) was used as positive control.

In another test the test system is MAIT clone MRC25. In words: Control stimulation of MAIT clone MRC25. The settings on record: drug-treated APCs; paclitaxel in presence of nucleosides (FIG. 16C-D). The method, then:
In some experiments, MAIT cells were stimulated by APCs pulsed 3 h with 5-OP-RU as previously described or with 30 μM 6,7-dimethyl-8-ribityllumazine (Cayman Chemical Cat #23370).

Turning to `COc1cccc2c1C(=O)c1c(O)c3c(c(O)c1C2=O)C[C@@](O)(C(=O)CO)C[C@@H]3O[C@H]1C[C@H](N)[C@H](O)[C@H](C)O1` [doxorubicin, Doxorubicin], the “activation of MR1T-cell clones TC5A87, DGB129, MCA3C3” value in the test with MR1T cell clones is “promoted activation of all three MR1T-cell clones”. Besides, the ROS accumulation entry in the test on THP-1 cells is listed as “significantly increased ROS accumulation”.
For `CC(=O)O[C@H]1C(=O)[C@@]2(C)[C@H]([C@H](OC(=O)c3ccccc3)[C@]3(O)C[C@H](OC(=O)[C@H](O)[C@@H](NC(=O)c4ccccc4)c4ccccc4)C(C)=C1C3(C)C)[C@]1(OC(C)=O)CO[C@@H]1C[C@@H]2O` [paclitaxel, Paclitaxel], the “activation of MR1T-cell clones TC5A87, DGB129, MCA3C3” value in the test with MR1T cell clones was “promoted activation of all three MR1T-cell clones”. The ROS accumulation entry with THP-1 cells is on record as “significantly increased ROS accumulation”. In addition, in the test on MAIT clone MRC25, the MAIT-cell response result is “little but significant stimulation”.
